Data: ChEMBL document CHEMBL5131448, “Tumor-microenvironmental-response Bi-functional molecules for efficient imaging and anti-tumor activity therapy” (Eur J Med Chem, 2022)
Calls of active or inactive are those of the source. No cut-off for these calls is given here.

Tests used:
[1] = test system: HeLa; assay: Antiproliferative activity against human HeLa cells after 72 hrs by MTT assay; type: functional, cell-based
[2] = test system: EA.hy 926; assay: Effect on cell apoptosis in human EA.hy 926 cells assessed as promotion of apoptosis at 0.1 to 40 uM measured after 72 hrs by Annexin V-FITC/propidium iodide staining based flow cytometry; type: functional; settings: dose 0.1-40 µM
[3] = test system: EA.hy 926; assay: Induction of cell cycle arrest in human EA.hy 926 cells assessed as accumulation of cells at G1-pahse at 0.1 to 40 uM measured after 72 hrs by propidium iodide staining method; type: functional, cell-based; settings: dose 0.1-40 µM
[4] = test system: MDA-MB-231; assay: Antiproliferative activity against human MDA-MB-231 cells after 72 hrs by MTT assay; type: functional, cell-based; settings: MDA-MB-231, 72 h
[5] = test system: EA.hy 926; assay: Antiproliferative activity against human EA.hy 926 cells after 72 hrs by MTT assay; type: functional, cell-based; settings: EA.hy 926, 72 h
[6] = test system: HEK293; assay: Cytotoxicity against human HEK293 cells measured after 72 hrs by MTT assay; type: toxicity, cell-based; settings: hek293, 72 h
[7] = test system: A549; assay: Antiproliferative activity against human A549 cells after 72 hrs by MTT assay; type: functional, cell-based; settings: A549, 72 h

| IC50 [1] [µM] | IC50 [4] [µM] | IC50 [7] [µM] | SMILES | Activity [2] | Activity [3] | IC50 [5] [µM] | Activity [6] |
| --- | --- | --- | --- | --- | --- | --- | --- |
| 15.8 | 35.9 |  | CCN(CC)c1ccc2c(-c3ccccc3C(=O)NCCCCNC(=O)CSSCC(=O)Nc3cccc(-c4cn(Cc5ccc(-c6ccc(OC)nc6)cc5)nn4)c3)c3ccc(=[N+](CC)CC)cc-3oc2c1 | Active | Active | 2.96 | Non-Toxic |
| 128 | 85 | 22.1 | CCN(CC)c1ccc2c(-c3ccccc3C(=O)NCCCCNC(=O)CSSCC(=O)n3nc(N)c4c(-c5ccc(NC(=O)Nc6cc(C)ccc6F)cc5)cccc43)c3ccc(=[N+](CC)CC)cc-3oc2c1 | Active | Active | 0.03 | Non-Toxic |
|  |  |  | COc1ccc(-c2ccc(Cn3cc(-c4cccc(N)c4)nn3)cc2)cn1 | Active | Active |  | Non-Toxic |
